Source: patent publication US11638713B2, “Patentiflorin A analogs as antiviral agents” (priority 2019, dated 2023)

Experiments:
in vitro = details: human
HIV = assay: microbe, parasite or virus in culture; format: cell-based; details: for EC50: Human immunodeficiency virus 1, A549
H5N1 virus = assay: microbe, parasite or virus in culture; format: cell-based, H5N1 influenza virus; details: Influenza A virus, read-out: % Inhibition against H5N1 virus; for inhibition at 1 µg/mL: H5N1, A549, 1000 ng/mL; for inhibition at 5 µg/mL: H5N1, A549, 5000 ng/mL; for inhibition at 0.05 µg/mL: H5N1, A549, 50 ng/mL; for inhibition at 0.25 µg/mL: H5N1, A549, 250 ng/mL

Structure (SMILES): COc1cc2c(OC3O[C@H](C)[C@@H](O)[C@H](OC(=O)c4ccccc4)[C@H]3O)c3c(c(-c4ccc5c(c4)OCO5)c2cc1OC)C(=O)OC3 (stereo partly drawn) [Compound 31d, 3″-O-benzoyl-7-O-β-D-patentiflorin A]
- CC50 (in vitro; CC50 (nM)): > 63 nM
- EC50 (HIV): 1.36 nM

Structure (SMILES): COc1cc2c(OCC(N)=O)c3c(c(-c4ccc5c(c4)OCO5)c2cc1OC)C(=O)OC3 [Compound 14a]
- CC50 (in vitro; CC50 (nM)): 548 nM
- EC50 (HIV): 103 nM

Structure (SMILES): COc1cc2c(OC3OC[C@@H](O)[C@H](O)[C@H]3O)c3c(c(-c4ccc5c(c4)OCO5)c2cc1OC)C(=O)OC3 (stereo partly drawn) [Compound 26a, 7β-D-xylosyloxydiphyllin]
- CC50 (in vitro; CC50 (nM)): 6220 nM
- inhibition at 1 µg/mL (H5N1 virus): 93.6%
- inhibition at 5 µg/mL (H5N1 virus): 97.8%

Structure (SMILES): COc1cc2c(OC3O[C@H](C)[C@@H](O)[C@H](OC(=O)c4cnccn4)[C@H]3O)c3c(c(-c4ccc5c(c4)OCO5)c2cc1OC)C(=O)OC3 (stereo partly drawn) [Compound 31i, 3″-O-pyrazinecarbonyl-7-O-β-D-patentiflorin A]
- anti-HIV activity in terms of SI values (HIV): much more improved anti-HIV activity

Structure (SMILES): COc1cc2c(OC3OC[C@@H](OC(C)=O)[C@H](O)[C@H]3OC(C)=O)c3c(c(-c4ccc5c(c4)OCO5)c2cc1OC)C(=O)OC3 (stereo partly drawn) [Compound 27ae, 2″,4″-Diacetyl-7-O-β-D-xylosyldiphyllin]
- CC50 (in vitro; CC50 (nM)): 2590 nM

Structure (SMILES): COc1cc2c(OC3OC[C@H](O)[C@H](O)[C@H]3O)c3c(c(-c4ccc5c(c4)OCO5)c2cc1OC)C(=O)OC3 (stereo partly drawn) [Compound 26c, 7-O-α-L-arabinosyldiphyllin]
- CC50 (in vitro; CC50 (nM)): > 9760 nM

Structure (SMILES): COc1cc2c(OC3OC[C@@H](O)[C@H](O)[C@H]3OC(C)=O)c3c(c(-c4ccc5c(c4)OCO5)c2cc1OC)C(=O)OC3 (some centres unmarked) [Compound 27ac]
- CC50 (in vitro; CC50 (nM)): 2940 nM

Structure (SMILES): COc1cc2c(OC(C)=O)c3c(c(-c4ccc5c(c4)OCO5)c2cc1OC)C(=O)OC3 [Compound 16]
- CC50 (in vitro; CC50 (nM)): 3400 nM

Structure (SMILES): COc1cc2c(OC3OC[C@@H](OC(C)=O)[C@H](OC(C)=O)[C@H]3O)c3c(c(-c4ccc5c(c4)OCO5)c2cc1OC)C(=O)OC3 (stereo partly drawn) [Compound 27ad, 3″, 4″-Diacetyl-7-O-β-D-xylosyldiphyllin]
- CC50 (in vitro; CC50 (nM)): 783 nM

Structure (SMILES): COc1cc2c(OC3OC[C@@H](O)[C@H](OC(C)=O)[C@H]3OC(C)=O)c3c(c(-c4ccc5c(c4)OCO5)c2cc1OC)C(=O)OC3 (stereo partly drawn) [Compound 27af, 2″,3″-Diacetyl-7-O-β-D-xylosyldiphyllin]
- CC50 (in vitro; CC50 (nM)): 2250 nM

Structure (SMILES): COc1cc2c(OC3O[C@H](C)[C@@H](O)[C@H](OC(=O)N(C)C)[C@H]3O)c3c(c(-c4ccc5c(c4)OCO5)c2cc1OC)C(=O)OC3 (stereo partly drawn) [Compound 31f, 3″-O-dimethylcarbamyl-7-O-β-D-patentiflorin A]
- CC50 (in vitro; CC50 (nM)): 3.74 nM

Structure (SMILES): CC(=O)O[C@H]1C(=O)[C@@]2(C)[C@H]([C@H](OC(=O)c3ccccc3)[C@]3(O)C[C@H](OC(=O)[C@H](O)[C@@H](NC(=O)c4ccccc4)c4ccccc4)C(C)=C1C3(C)C)[C@]1(OC(C)=O)CO[C@@H]1C[C@@H]2O [taxol, reference compound]
- CC50 (in vitro; CC50 against the host cell line A549): 2.99 nM

Structure (SMILES): COc1cc2c(OC3O[C@H](C)[C@@H](O)[C@H](OC(=O)C(Cl)(Cl)Cl)[C@H]3O)c3c(c(-c4ccc5c(c4)OCO5)c2cc1OC)C(=O)OC3 (stereo partly drawn) [Compound 31k, 3″-O-trichloroacetyl-7-O-β-D-patentiflorin A]
- CC50 (in vitro; CC50 (nM)): 508 nM
- inhibition at 0.05 µg/mL (H5N1 virus): 86%
- inhibition at 0.25 µg/mL (H5N1 virus): 95.7%

Structure (SMILES): COc1cc2c(OC3OC[C@@H](O)[C@H](OC(C)=O)[C@H]3O)c3c(c(-c4ccc5c(c4)OCO5)c2cc1OC)C(=O)OC3 (stereo partly drawn) [Compound 27ab, 3″-Acetyl-7-O-β-D-xylosyldiphyllin]
- CC50 (in vitro; CC50 (nM)): 2760 nM
- inhibition at 1 µg/mL (H5N1 virus): 96.9%
- inhibition at 5 µg/mL (H5N1 virus): 97.8%

Structure (SMILES): COc1cc2c(OC3O[C@H](C)[C@@H](O)[C@H](OC(=O)c4ccc(Cl)cc4)[C@H]3O)c3c(c(-c4ccc5c(c4)OCO5)c2cc1OC)C(=O)OC3 (stereo partly drawn) [Compound 31h, 3″-O-p-chlorobenzoyl-7-O-β-D-patentiflorin A]
- CC50 (in vitro; CC50 (nM)): 336 nM
- inhibition at 0.05 µg/mL (H5N1 virus): 94.6%
- inhibition at 0.25 µg/mL (H5N1 virus): 97.6%

Structure (SMILES): COc1cc2c(OC3O[C@H](C)[C@@H](OC(C)=O)[C@H](OC(C)=O)[C@H]3OC(C)=O)c3c(c(-c4ccc5c(c4)OCO5)c2cc1OC)C(=O)OC3 (some centres unmarked) [Compound 25b, Peracetylated Patentiflorin A]
- CC50 (in vitro; CC50 (nM)): 259 nM
